In patent publication US20220204476A1, “RNA VIRUS INHIBITOR COMPOUNDS AND USES THEREOF” (The Governors of the University of Alberta, priority 2020, published 2022):
Where two headings read alike, the source gives them in different places.

Assays:
[1] = biological target: SARS-CoV-2 3CLP (Severe acute respiratory syndrome coronavirus 2, UniProt P0DTD1); assay: SARS-CoV-2 3CLP inhibition, FRET-based cleavage assay; assay type: biochemical; details: 100 μM substrate, 37° C., 10 min incubation, pH 7.8
[2] = system: SARS-CoV-2; assay: SARS-CoV-2 in vitro plaque reduction assay in Vero E6 cells; assay type: cell-based; details: plaques counted after 48 h, >5 μM = did not reduce plaque numbers by half at 10 μM, read-out: SARS-CoV-2 Antiviral EC50
[3] = 80 nM SARS-CoV-2 3CLP, read-out: 3CL Protease IC50
[4] = Severe acute respiratory syndrome coronavirus 2, Vero C1008, MOI 0.0001 pfu/cell

Structure (SMILES): COc1nccc2[nH]c(C(=O)N[C@@H](CC(C)(C)C)C(=O)N[C@H](C#N)C[C@@H]3CCCNC3=O)cc12 [Compound 99, N-[(2S)-1-({(1S)-1-cyano-2-[(3S)-2-oxopiperidin-3-yl]ethyl}amino)-4,4-dimethyl-1-oxopentan-2-yl]-4-methoxy-1H-pyrrolo[3,2-c]pyridine-2-carboxamide]
- IC50 [1, 3]: 22 nM
- EC50 [2, 4]: > 5000 nM

Structure (SMILES): COc1cccc2[nH]c(C(=O)N[C@@H](CC(C)C)C(=O)N[C@@H](C[C@@H]3CCCNC3=O)C(=O)COC(=O)C3(C(F)(F)F)CC3)cc12 [Compound 15, (3S)-3-{[N-(4-methoxy-1H-indole-2-carbonyl)-L-leucyl]amino}-2-oxo-4-[(3S)-2-oxopiperidin-3-yl]butyl 1-(trifluoromethyl)cyclopropane-1-carboxylate]
- IC50 [1, 3]: 41 nM
- EC50 [2, 4]: > 5000 nM

Structure (SMILES): CC(C)C[C@H](NCc1ncco1)C(=O)N[C@H](C#N)C[C@@H]1CCCNC1=O [Compound 91, N-{(1S)-1-cyano-2-[(3S)-2-oxopiperidin-3-yl]ethyl}-N^2-[(1,3-oxazol-2-yl)methyl]-L-leucinamide]
- IC50 [1, 3]: 37000 nM
- EC50 [2, 4]: > 5000 nM

Structure (SMILES): CC(C)(C)C[C@H](NC(=O)OCC1c2ccccc2-c2ccccc21)C(=O)N[C@H](C#N)C[C@@H]1CCCNC1=O [Compound 86, N-{(1S)-1-cyano-2-[(3S)-2-oxopiperidin-3-yl]ethyl}-N^2-{[(9H-fluoren-9-yl)methoxy]carbonyl}-4-methyl-L-leucinamide]
- IC50 [1, 3]: 110 nM
- EC50 [2, 4]: 4300 nM

Structure (SMILES): COc1cccc2[nH]c(C(=O)N[C@@H](CC(C)C)C(=O)N[C@@H](C[C@@H]3CCNC3=O)C(=O)COC(=O)C(C)(C)C(F)(F)F)cc12 [Compound 27, (3S)-3-{[N-(4-methoxy-1H-indole-2-carbonyl)-L-leucyl]amino}-2-oxo-4-[(3S)-2-oxopyrrolidin-3-yl]butyl 3,3,3-trifluoro-2,2-dimethylpropanoate]
- IC50 [1, 3]: 29 nM
- EC50 [2, 4]: > 5000 nM

Structure (SMILES): COc1cccc2[nH]c(C(=O)N[C@@H](CC(C)C)C(=O)N[C@@H](C[C@@H]3CCCNC3=O)C(=O)COC(=O)c3ccc(C(C)(C)C)nc3)cc12 [Compound 11, (3S)-3-{[N-(4-methoxy-1H-indole-2-carbonyl)-L-leucyl]amino}-2-oxo-4-[(3S)-2-oxopiperidin-3-yl]butyl 6-tert-butylpyridine-3-carboxylate]
- IC50 [1, 3]: 19 nM
- EC50 [2, 4]: > 5000 nM

Structure (SMILES): CC(C)(C)C[C@H](NC(=O)[C@@H]1CCCN1)C(=O)N[C@H](C#N)C[C@@H]1CCCNC1=O [Compound 90, prolyl-N-{(1S)-1-cyano-2-[(3S)-2-oxopiperidin-3-yl]ethyl}-4-methyl-L-leucinamide]
- IC50 [1, 3]: 1100 nM
- EC50 [2, 4]: > 5000 nM

Structure (SMILES): COc1cccc2[nH]c(C(=O)N[C@@H](CC(C)C)C(=O)N[C@@H](C[C@@H]3CCCNC3=O)C(=O)COC(=O)C3(C#N)CC3)cc12 [Compound 12, (3S)-3-{[N-(4-methoxy-1H-indole-2-carbonyl)-L-leucyl]amino}-2-oxo-4-[(3S)-2-oxopiperidin-3-yl]butyl 1-cyanocyclopropane-1-carboxylate]
- IC50 [1, 3]: 16 nM
- EC50 [2, 4]: > 5000 nM

Structure (SMILES): COc1cccc2[nH]c(C(=O)N[C@@H](CC(C)C)C(=O)N[C@@H](C[C@@H]3CCCNC3=O)C(=O)COC(=O)C3(C#N)CCCC3)cc12 [Compound 19, (3S)-3-{[N-(4-methoxy-1H-indole-2-carbonyl)-L-leucyl]amino}-2-oxo-4-[(3S)-2-oxopiperidin-3-yl]butyl 1-cyanocyclopentane-1-carboxylate]
- IC50 [1, 3]: 26 nM
- EC50 [2, 4]: > 5000 nM

Structure (SMILES): CC(C)C[C@H](NCC1CCCCC1)C(=O)N[C@H](C#N)C[C@@H]1CCCNC1=O [Compound 95, N-{(1S)-1-cyano-2-[(3S)-2-oxopiperidin-3-yl]ethyl}-N^2-(cyclohexylmethyl)-L-leucinamide]
- IC50 [1, 3]: 97000 nM
- EC50 [2, 4]: > 5000 nM

Structure (SMILES): CC(C)C[C@H](NC(=O)OCc1ccccc1)C(=O)N[C@H](C#N)C[C@@H]1CCCNC1=O [Compound 66, N^2-[(benzyloxy)carbonyl]-N-{(1S)-1-cyano-2-[(3S)-2-oxopiperidin-3-yl]ethyl}-L-leucinamide]
- IC50 [1, 3]: 340 nM
- EC50 [2, 4]: > 5000 nM

Structure (SMILES): CC(C)C[C@H](NC(=O)[C@@H]1C[C@H]1c1ccccc1)C(=O)N[C@H](C#N)C[C@@H]1CCCNC1=O [Compound 106, N-{(1S)-1-cyano-2-[(3S)-2-oxopiperidin-3-yl]ethyl}-N^2-[(1R,2R)-2-phenylcyclopropane-1-carbonyl]-L-leucinamide]
- IC50 [1, 3]: 69 nM
- EC50 [2, 4]: > 5000 nM

Structure (SMILES): COc1cccc2[nH]c(C(=O)N[C@@H](CC(C)C)C(=O)N[C@@H](C[C@@H]3CCCNC3=O)C(=O)COC(=O)C3(C)OCCCO3)cc12 [Compound 16, (3S)-3-{[N-(4-methoxy-1H-indole-2-carbonyl)-L-leucyl]amino}-2-oxo-4-[(3S)-2-oxopiperidin-3-yl]butyl 2-methyl-1,3-dioxane-2-carboxylate]
- IC50 ([1]; 3CL Protease IC50, 80 nM SARS-CoV-2 3CLP): 13 nM
- EC50 [2, 4]: > 5000 nM

Structure (SMILES): CC(C)C[C@H](NC(=O)C1(O)CCCC1)C(=O)N[C@H](C#N)C[C@@H]1CCCNC1=O [Compound 76, N-{(1S)-1-cyano-2-[(3S)-2-oxopiperidin-3-yl]ethyl}-N^2-(1-hydroxycyclopentane-1-carbonyl)-L-leucinamide]
- IC50 [1, 3]: 950 nM
- EC50 [2, 4]: > 5000 nM

Structure (SMILES): COc1nccc2c1cc(C(=O)N[C@@H](CC(C)(C)C)C(=O)N[C@H](C#N)C[C@@H]1CCCNC1=O)n2C [Compound 100, N-[(2S)-1-({(1S)-1-cyano-2-[(3S)-2-oxopiperidin-3-yl]ethyl}amino)-4,4-dimethyl-1-oxopentan-2-yl]-4-methoxy-1-methyl-1H-pyrrolo[3,2-c]pyridine-2-carboxamide]
- IC50 [1, 3]: 220 nM
- EC50 [2, 4]: > 5000 nM

Structure (SMILES): CC(C)(C)C[C@H](NC(=O)c1nc2ccccc2[nH]1)C(=O)N[C@H](C#N)C[C@@H]1CCCNC1=O [Compound 88, N-[(2S)-1-({(1S)-1-cyano-2-[(3S)-2-oxopiperidin-3-yl]ethyl}amino)-4,4-dimethyl-1-oxopentan-2-yl]-1H-benzimidazole-2-carboxamide]
- IC50 [1, 3]: 40 nM
- EC50 [2, 4]: > 5000 nM

Structure (SMILES): CC(C)C[C@H](NCC1Cc2ccccc2O1)C(=O)N[C@H](C#N)C[C@@H]1CCCNC1=O (single isomer, unassigned) [Compound 97]
- IC50 [1, 3]: > 500000 nM
- EC50 ([2]; MOI 0.0001 pfu/cell): > 5000 nM

Structure (SMILES): COc1cccc2[nH]c(C(=O)N[C@@H](CC(C)C)C(=O)N[C@@H](C[C@@H]3CCCNC3=O)C(=O)COC(=O)c3cccnc3C(F)(F)F)cc12 [Compound 10, (3S)-3-{[N-(4-methoxy-1H-indole-2-carbonyl)-L-leucyl]amino}-2-oxo-4-[(3S)-2-oxopiperidin-3-yl]butyl 2-(trifluoromethyl)pyridine-3-carboxylate]
- IC50 [1, 3]: 52 nM
- EC50 [2, 4]: > 5000 nM

Structure (SMILES): COc1cccc2[nH]c(C(=O)N[C@@H](CC(C)C)C(=O)N[C@@H](C[C@@H]3CCNC3=O)C(=O)COC(=O)c3c(C(F)(F)F)cccc3C(F)(F)F)cc12 [Compound 25, (3S)-3-{[N-(4-methoxy-1H-indole-2-carbonyl)-L-leucyl]amino}-2-oxo-4-[(3S)-2-oxopyrrolidin-3-yl]butyl 2,6-bis(trifluoromethyl)benzoate]
- IC50 [1, 3]: 18 nM
- EC50 [2, 4]: < 250 nM

Structure (SMILES): CC(C)C[C@H](NC(=O)C1CCCC1)C(=O)N[C@@H](C[C@@H]1CCCNC1=O)C(=O)COC(=O)c1cccnc1 [Compound 17, (3S)-3-{[N-(cyclopentanecarbonyl)-L-leucyl]amino}-2-oxo-4-[(3S)-2-oxopiperidin-3-yl]butyl pyridine-3-carboxylate]
- IC50 [1, 3]: 4990 nM
- EC50 [2, 4]: > 5000 nM
